What was measured:
[1] = Control: nanofiltration without green sorption media pretreatment
Protocol: (§1) The water samples were collected from the same site of the C-23 canal during both the dry and wet seasons. However, only wet season water samples were used in the experiment. The water samples were analyzed for both long-chain (PFOA and PFOS) and short-chain (Perfluorobutanoic acid [PFBA] and Perfluorobutanesulfonic acid [PFBS]) PFAS following the modified EPA 537.1 method (Shoemaker & Tettenhorst, 2020). Through this method, an aliquot of a 250 mL water sample containing analytes and internal standards is extracted via solid phase extraction. The extracted analytes and internal standards are then eluted with methanol and ammonium hydroxide in methanol solvent. Then the eluted samples are dried with nitrogen and reconstituted to 1 mL volume with a buffer solution. The samples are then injected into a C18 liquid chromatography column, and the PFAS compounds are separated by a gradient of pure methanol and 20 mM ammonium acetate. Finally, the eluted compounds are detected, and their concentrations are measured via tandem mass spectrometry. The method detection limits (MDLs) for PFBA, PFBS, PFOA, and PFOS were 0.5 ng·L^−1, 2 ng·L^−1, 0.5 ng·L^−1, and 1 ng·L^−1, respectively. The concentration of calcium ion (Ca^2+) was analyzed at Eurofins Flowers's Chemical Laboratories (Altamonte Springs, Florida) following EPA method 6010D using inductively coupled plasma optical emission spectroscopy (MDL=0.096 mg·L^−1). Total organic carbon (TOC) and dissolved organic carbon (DOC) were measured using a TOC analyzer following EPA method 415.3.
(§2) Water samples collected from the C-23 canal were first fortified with PFOS and PFOA and then used as influents to the pretreatment column containing one of the two green sorption media. Note the water samples were not fortified with PFBA and PFBS. The green sorption media effluent served as the feedwater for the nanofiltration unit of the proposed water treatment system. The nanofiltration membrane unit without any green sorption media-based pretreatment served as the “control.” The integration of a green sorption media (CPS or ZIPGEM) with crossflow nanofiltration is herein referred to as a water treatment system, denoted as CPS-nanofiltration or ZIPGEM-nanofiltration. The CPS and ZIPGEM column influents and effluents and nanofiltration permeates were analyzed for both long-chain (PFOS and PFOA) and short-chain (PFBS and PFBA) PFAS. FIG. 3 presents the green sorption media-nanofiltration hybrid treatment scheme.
A bench-scale crossflow filtration setup was used in these experimental methods. The experimental setup consisted of a feed tank, a centrifugal pump, three CF042 membrane cells connected to pressure gauges, check valves, and flowmeters. A recirculating chiller was used for regulating the temperature at 20° C. […]

[2] = Overall removal by ZIPGEM-nanofiltration water treatment system
From the text: as §2
(§3) The average removal efficiencies of each media pretreatment were calculated based on PFAS concentrations in the influents and effluents of triplicate columns, as disclosed in TABLE 5. […] The overall efficiency of the hybrid treatment was calculated by comparing the average concentrations of PFAS in the influents of the green sorption media pretreatment columns and the nanofiltration permeates, as disclosed in TABLE 6.
(§4) where C0 is the concentration of PFAS in the column influent or nanofiltration feed in ng·L^−1, and where Ce is the concentration of PFAS in the column effluent or nanofiltration permeate in ng·L^−1. TABLE 7 summarizes the key findings of the green sorption media-based pretreatment and green sorption media-nanofiltration treatment, and these are explained in the subsequent subsection through an in-depth discussion and statistical analysis. It should be noted that PFOS concentration was slightly higher in the membrane permeates compared to the effluent of green sorption media pretreatment media, as disclosed in TABLE 5. The slight increase in PFOS concentration could be attributed to the filtration experimental setup that operated in a total recirculation mode. However, most of the differences were very close to the MDL for PFOS (1 ng·L^−1), which was already undetected in the green sorption media effluent

[3] = Fixed-bed column pretreatment of spiked C-23 canal water with CPS; conditions: for Removal via column C3: CPS column 3, 9 h; for Removal via column C1 / Removal via column C2 / average removal percentage by media: CPS; for Removal via column C1 / Removal via column C2: 9 h; for average removal percentage by media: triplicate columns
Protocol: as §1, §2
C-23 canal water was stored in a walk-in refrigerator at […] after collection. For the pretreatment experiment, a total of 60 L of water was used as influents to the CPS and ZIPGEM columns. Although the raw water was spiked with 70 ng·L^−1 of PFOA and PFOS each, the short-chain PFAS (PFBA, PFBS) were at their indigenous concentrations. A peristaltic pump was used to deliver the water to the columns at a constant flowrate of 14 ml·min^−1. Three columns (triplicate) with 3 ft length and 4-inch diameter containing 2,600 ml of media were set up for each media, and all samples were analyzed in triplicate (FIG. 4). The fixed-bed column experiments were run for more than 48 h, and effluents were taken at different time intervals to be used as feedwaters for the nanofiltration treatment that followed. […] At least 5 L of column effluent were collected to be used as the nanofiltration feed, and the stated effluent at 9 h for CPS was collected from 0 h until 9 h, whereas effluent at 30 h for ZIPGEM was collected from 9 h until 30 h. The collected effluents from the column study were stored in a refrigerator until they were used for the nanofiltration experiment. FIG. 4 illustrates the experimental setup for the pretreatment CPS and ZIPGEM process.
The average removal efficiencies of each media pretreatment were calculated based on PFAS concentrations in the influents and effluents of triplicate columns, as disclosed in TABLE 5. […]

[4] = Overall removal by CPS-nanofiltration water treatment system
From the text: as §2, §3, §4

SMILES	% Removal by Control, O [1] [%]	O = overall removal by water treatment system ([2]; column 1) [%]	O = overall removal by water treatment system ([2]; column 2) [%]	O = overall removal by water treatment system ([2]; column 3) [%]	Removal via column C3 [3] [%]	Removal via column C1 [3] [%]	Removal via column C2 [3] [%]	average removal percentage by media [3]	O = overall removal by water treatment system ([4]; column 1) [%]	O = overall removal by water treatment system ([4]; column 2) [%]	O = overall removal by water treatment system ([4]; column 3) [%]
O=S(=O)(O)C(F)(F)C(F)(F)C(F)(F)C(F)(F)C(F)(F)C(F)(F)C(F)(F)C(F)(F)F [PFOS, Perfluorooctanesulfonic acid]	84	100	100	100	100	100	100	100	100	100	100
O=S(=O)(O)C(F)(F)C(F)(F)C(F)(F)C(F)(F)F [PFBS, Perfluorobutanesulfonic acid]	44	28	35	35	25	20	27	24	41	38	52
O=C(O)C(F)(F)C(F)(F)C(F)(F)C(F)(F)C(F)(F)C(F)(F)C(F)(F)F [PFOA, Perfluorooctanoic acid]	82	73	82	70	88	96	85	90	98	94	97
O=C(O)C(F)(F)C(F)(F)C(F)(F)F [PFBA, Perfluorobutanoic acid]	67	40	36	41	29	21	24	25	58	45	53

From patent publication US20250091911A1, “NANOFILTRATION SYSTEM AND METHOD INCLUDING PRETREATMENT WITH GREEN SORPTION MEDIA” (University of Central Florida Research Foundation, Inc., priority 2023, published 2025)
